Experimental data from patent US20080249174A1, “Animal Model for Studying Atherosclerotic Lesions” (THE RESEARCH FOUNDATION OF STATE UNIVERSITY OF NEW YORK, priority 2005, published 2008).
Marks after values point to notes of the source that are not given here.

Columns and labels:
[1] = system: apoE KO mice; assay: Plasma lipid measurement after myriocin administration; type: in vivo, mouse; conditions: for Plasma PC: PC = total phospholipid minus SM; for Plasma SM: n=7; for PC/SM ratio increased / plasma PC levels increased / plasma SM levels decreased: vs control; for PC/SM ratio increased / plasma PC levels increased: p<0.0001
Protocol: (§1) Eight-week-old apoE KO micewere purchased from The Jackson Laboratory (Bar Harbor, Me.). Myriocin (0.3 mg/kg) (Biomol Research Laboratories Inc.) or phosphate buffered saline was injected intraperitoneally every other day for 8 weeks. The animals were on Purina Rodent Chow (catalog number 5001) or a high fat, high cholesterol diet (20% milk fat and 0.15% cholesterol; Harlan Teklad, Madison, Wis.).
(§2) Fasting plasma was collected for fast protein liquid chromatography (FPLC) separation and lipid measurement. Total cholesterol, phospholipids and triglyceride inplasma, and lipoproteins were assayed by enzymatic methods (WakoPure Chemical Industries Ltd., Osaka, Japan). Plasma sphingomyelin was measured as described previously (JBC13). PC concentration was obtained by subtracting SM from total phospholipid concentration. Apolipoprotein analysis using SDS-PAGE was also done as describedpreviously (JBC 14).

[2] = system: apoE KO mice; assay: Plasma sphingolipid analysis by mass spectrometry after myriocin administration; type: in vivo, mouse; conditions: for Plasma C14Cer / Plasma C16Cer / Plasma C18:1Cer / Plasma C18Cer / Plasma C20Cer / Plasma C24:1Cer / Plasma C24Cer / Plasma DHSph / Plasma DHSph-1P / Plasma S1P / Plasma Sph: myriocin 0.3 mg/kg i.p. 8 weeks, n=7
Protocol: as §1
Plasma sphingosinebases, sphingoid base-1-phosphates, and ceramide species were performed on a Thermo Finnigan TSQ 7000 triple quadrupole mass spectrometer operating in a multiple reaction monitoring, positive ionization mode at the Department of Biochemistry and Molecular Biology, Medical University of South Carolina, on a fee-for-service basis. Briefly, 250 μl of mouse plasma was fortified with the internal standards (IC17 base D-erythro-sphingosine (17C-Sph), C17 sphingosine-1-phosphate (17C—S1P), N-palmitoyl-D-erythro-C13 sphingosine (13C-Cer), and heptadecanoyl-D-erythro-sphingosine (C17-Cer)) and extracted with ethyl acetate/iso-propanol/water (60:30:10) (v/v) solvent system. After evaporation and reconstitution in 100 μl of methanol, samples were injected onto the Surveyor/TSQ 7000 liquid chromatography/mass spectrometry system, and gradient was eluted from a BDSHypersil C8, 150×3.2-mm, 3-μm particle size column with a 1 mM methanolic ammonium formate, 2 mM aqueous ammonium formate mobile phase system. Peaks corresponding to the target analytes and internal standards were collected and processed using the Xcalibur software system. Quantitative analysis was based on the calibration curves generated by spiking an artificial matrix with the known amounts of the target analyte synthetic standards and an equal amount of the internal standards. The target analyte/internal standard peak area ratios were plotted against analyte concentration. The target analyte/internal standard peak area ratios from the samples were similarly normalized to their respective internal standards and compared with the calibration curves using a linear regression model.

[3] = system: apoE KO mice; assay: FPLC lipid distribution among lipoproteins with or without myriocin; type: in vivo, mouse
Protocol: Aliquots of 200 μl of pooled plasma from mice (n=7) with or without myriocin treatment were analyzed by FPLC (V, VLDL; L, LDL; and H, HDL). An aliquot of each fraction was used for the determination of SM (FIG. 6A), PC (FIG. 6B), and cholesterol (FIG. 6C).
Aliquots of 200 μl of pooled plasma from mice (n=7) with or without myriocin treatment were analyzed by FPLC (V, VLDL; L, LDL; and H, HDL). An aliquot of each fraction was used for the determination of SM (FIG. 7A), PC (FIG. 7B), and cholesterol (FIG. 7C).
as §2
To investigate the lipid distribution among the lipoproteins with or without myriocin treatment, FPLC was utilized to fractionize lipoproteins and measured SM, PL, and cholesterol in each fraction.

[4] = cited from earlier work
[5] = system: apoE KO mice; conditions: oral myriocin, high cholesterol diet; cited from earlier work
[6] = chow diet, myriocin 0.3 mg/kg i.p. 8 weeks
[7] = high fat diet, myriocin 0.3 mg/kg i.p. 8 weeks
[8] = high fat, high cholesterol (Western type) diet 8 weeks
[9] = high fat, high cholesterol diet
[10] = chow diet, pooled plasma n=7, FIG. 6
[11] = high fat diet, pooled plasma n=7, FIG. 7

Compound: CCCCCCC(=O)CCCCCC/C=C/C[C@@H](O)[C@H](O)[C@@](N)(CO)C(=O)O [Myriocin, myriocin]
- total cholesterol levels, change after myriocin ([1]; chow diet): not significantly changed
- triglyceride levels, change after myriocin ([1]; chow diet): not significantly changed
- PC/SM [1, 6]: 12.1 ± 0.2a
- Plasma Chol [1, 6]: 660 ± 105 mg/dL
- Plasma TG [1, 6]: 75 ± 19 mg/dL
- Plasma PC [1, 6]: 399 ± 59^a mg/dl
- Plasma SM ([1]; chow diet, myriocin 0.3 mg/kg i.p. every other day 8 weeks, mean ± S.D.): 33 ± 3^a mg/dl
- PC/SM ratio increased ([1]; chow diet): 317%
- plasma PC levels increased ([1]; chow diet): 91%
- plasma SM levels decreased ([1]; chow diet, p<0.001): 54%
- PC/SM [1, 7]: 16.9
- Plasma Chol [1, 7]: 1807 ± 342 mg/dL
- Plasma TG [1, 7]: 107 ± 27 mg/dL
- Plasma SM [1, 7]: 47 ± 14^a mg/dl
- Plasma PC [1, 7]: 795 ± 97^a mg/dl
- plasma SM levels decreased [1, 8]: 59%
- PC/SM ratio increased [1, 8]: 380%
- plasma PC levels increased [1, 8]: 100%
- total cholesterol levels, change after myriocin [1, 9]: not significantly changed
- triglyceride levels, change after myriocin [1, 9]: not significantly changed
- plasma Cer, change after myriocin treatment ([2]; chow diet): significantly decreased
- plasma S1P, change after myriocin treatment ([2]; chow diet): significantly decreased
- plasma Sph, change after myriocin treatment ([2]; chow diet): significantly decreased
- Plasma C14Cer ([2]; chow diet): 12 ± 2^a nM
- Plasma C16Cer ([2]; chow diet): 11 ± 3^a nM
- Plasma C18:1Cer ([2]; chow diet): 2 ± 1^a nM
- Plasma C18Cer ([2]; chow diet): 51 ± 8^a nM
- Plasma C20Cer ([2]; chow diet): 35 ± 9^a nM
- Plasma C24:1Cer ([2]; chow diet): 854 ± 144^a nM
- Plasma C24Cer ([2]; chow diet): 1321 ± 22^a nM
- Plasma DHSph ([2]; chow diet): 30 ± 3 nM
- Plasma DHSph-1P ([2]; chow diet): 9 ± 5^a nM
- Plasma S1P ([2]; chow diet): 58 ± 9^a nM
- Plasma Sph ([2]; chow diet): 127 ± 8^a nM
- Plasma S1P ([2]; chow diet, listed as myriocin): < 100 nM
- Plasma C14Cer ([2]; high fat diet): 20 ± 2 nM
- Plasma C16Cer ([2]; high fat diet): 12 ± 6^a nM
- Plasma C18:1Cer ([2]; high fat diet): 9 ± 1^a nM
- Plasma C18Cer ([2]; high fat diet): 36 ± 14^a nM
- Plasma C20Cer ([2]; high fat diet): 45 ± 11^a nM
- Plasma C24:1Cer ([2]; high fat diet): 1009 ± 134^a nM
- Plasma C24Cer ([2]; high fat diet): 1708 ± 426^a nM
- Plasma DHSph ([2]; high fat diet): 20 ± 1^a nM
- Plasma DHSph-1P ([2]; high fat diet): 10 ± 2^a nM
- Plasma S1P ([2]; high fat diet): 42 ± 19^a nM
- Plasma Sph ([2]; high fat diet): 114 ± 19^a nM
- plasma Cer, change after myriocin treatment [2, 9]: dramatically decreased
- plasma S1P, change after myriocin treatment [2, 9]: dramatically decreased
- plasma Sph, change after myriocin treatment [2, 9]: dramatically decreased
- PC in FPLC lipoprotein fractions [3, 10]: increased
- SM in FPLC lipoprotein fractions [3, 10]: significantly decreased
- cholesterol in FPLC lipoprotein fractions [3, 10]: no significant effect
- PC in FPLC lipoprotein fractions [3, 11]: increased
- SM in FPLC lipoprotein fractions [3, 11]: dramatically decreased
- cholesterol in FPLC lipoprotein fractions [3, 11]: no effect
- toxicity of oral administration [4]: serious gastrointestinal toxicity
- atherosclerotic lesions [5]: dramatic reduction
- plasma SM levels [5]: significant reduction
- plasma cholesterol levels [5]: significant reduction
